Holding throughout (assay type): cell-based
One experiment relates to Ki67. The experiment in a line: Ki67 immunolabelling of treated Episkin reconstructed epidermis. The conditions noted are these: for Ki67: Episkin, systemic treatment over 5 days. Here is the method: (§1) The samples of reconstructed epidermis, received from the company Episkin at six days of reconstruction, were recultured as soon as received in 3.5 ml of differentiation medium (Episkin™ medium) under insert (in immersion) for 48 hours in an incubator (37° C., 5% CO2).
(§2) The epidermis samples were then placed in contact with the test compounds systemically. The Episkin™ differentiation culture medium is changed for a differentiation medium containing the test compounds with 0.1% of final DMSO vehicle. The epidermis samples were recultured in an incubator for 48 hours. A new systemic treatment is performed for a further 72 hours of culture in the incubator.
(§3) For the treatment on Episkin™, each test compound was prepared extemporaneously by weighing out and dissolving at 10 mM in DMSO, and was then used to treat 3 samples of reconstructed epidermis. […] The positive controls used were vitamin D3, retinol and calcipotriol (a vitamin D3 analogue).
(§4) The epidermis samples were collected (3 epidermis samples per treatment) for histological analysis and protein extracts (the same reconstructed epidermis is used for the histological study and the protein extract).
The epidermis samples were included in OCT for freezing in liquid nitrogen and then stored at −80° C. The blocks obtained were sliced using a cryostat to a thickness of 7 μm, and the slices were dried and stored at −20° C. while awaiting immunolabelling.
The marker chosen for the immunolabellings is Ki67, which affords information regarding a possible modification of the cell proliferation in the basal layer.

The next experiment concerns corneodesmosin. The experiment in a line: Western blot of corneodesmosin in extracts of treated Episkin reconstructed epidermis. The note with it: systemic treatment over 5 days, grade relative to reference, generally for the highest concentration used (tested 1 and 10 μM), (*) = most active. Here is the method: as §1, §2
For the treatment on Episkin™, each test compound was prepared extemporaneously by weighing out and dissolving at 10 mM in DMSO, and was then used to treat 3 samples of reconstructed epidermis. Furthermore, each test compound was used in a proportion of 1 and 10 μM final in the culture medium (0.1% DMSO final). The positive controls used were vitamin D3, retinol and calcipotriol (a vitamin D3 analogue).
The epidermis samples were collected (3 epidermis samples per treatment) for histological analysis and protein extracts (the same reconstructed epidermis is used for the histological study and the protein extract). […]

Experiment [1] has as its system Episkin™ reconstructed epidermis. The experiment is described as follows: HES morphological observation of treated Episkin reconstructed epidermis. The conditions noted are these: systemic treatment over 5 days. Here is the method:
as §1, §2, §3, §4
The morphological control of the treated reconstructed epidermis samples was performed by staining with HES (haematoxylin-eosin-saffron) according to a standard protocol on histological slices of the samples included in paraffin (toluene bath: three times 15 minutes; 100° alcohol baths: twice for 1 minute; 95° alcohol baths: 1 minute; rinsing in water baths; haematoxylin bath: once for 2 minutes; rinsing in water baths; short dipping in a hydrochloric acid bath; rinsing in water; eosin bath: once for 1 minute; rinsing in water; short dipping in a 100° alcohol bath; saffron bath (5 minutes); short dipping in a 100° alcohol bath; toluene bath: three times for 2 minutes).

Setting [2] is: grade relative to reference, generally for the highest concentration used (tested 1 and 10 μM), (*) = most active.

The molecule `Cn1c2c(c(=O)n(C)c1=O)C(c1cccc(O)c1)C1=C(N2)c2ccccc2C1=O` (centres unmarked) [Compound (2)] registered a Ki67 with Ki67 (grade relative to reference, generally for the highest concentration used (tested 1 and 10 μM)) of 0.

`COc1cccc(C2C3=C(Nc4c2c(=O)n(C)c(=O)n4C)c2ccccc2C3=O)c1` (centres unmarked) [Compound (1)]: in the experiment on corneodesmosin, the CDSN result is listed as “++ (*)”.

In the experiment with corneodesmosin, `C=C1CC[C@H](O)C/C1=C/C=C1\CCC[C@]2(C)[C@@H]([C@H](C)CCCC(C)C)CC[C@@H]12` [Vitamin D3] had a CDSN of 0. This molecule also registered an HES in experiment [1] (setting [2]) of 0.

In the case of `Cn1c2c(c(=O)n(C)c1=O)C(c1ccc(O)cc1)C1=C(N2)c2ccccc2C1=O` (centres unmarked) [Compound (5)], the “Ki67 labelling (FIG. 2)” value with Ki67 (Episkin treated in the absence and presence of compound, result in words) is “marked, or even occasionally total, decrease of the Ki67 labelling”.

The molecule `CC1=C(/C=C/C(C)=C/C=C/C(C)=C/CO)C(C)(C)CCC1` [Retinol] gave an HES in experiment [1] (100 μM) of 0. This molecule also came in with a Ki67 with Ki67 (100 μM) of 0.

With `COc1cc(C2C3=C(Nc4c2c(=O)n(C)c(=O)n4C)c2ccccc2C3=O)cc(OC)c1O` (centres unmarked) [Compound (6)], the HES entry in experiment [1] (setting [2]) is recorded as “++ (*)”.

Source of the values: patent publication US20150152101A1, “ACTIVE COMPOUNDS FOR COMBATING GREASY SKIN” (L'OREAL, priority 2012, published 2015).
